This is an account of results in patent US12606541B2, “PPARg modulators and methods of use” (Eisai R&D Management Co., Ltd., priority 2020, dated 2026).

One test addresses T1, His6-TEV-PPARγ-(234-505) (Homo sapiens, UniProt P37231).
T1 construct: The His6-TEV-PPARγ-(234-505) protein for assay was expressed and purified; TEV cleavage site (N); made in house
T1 sequence (P37231 234-505): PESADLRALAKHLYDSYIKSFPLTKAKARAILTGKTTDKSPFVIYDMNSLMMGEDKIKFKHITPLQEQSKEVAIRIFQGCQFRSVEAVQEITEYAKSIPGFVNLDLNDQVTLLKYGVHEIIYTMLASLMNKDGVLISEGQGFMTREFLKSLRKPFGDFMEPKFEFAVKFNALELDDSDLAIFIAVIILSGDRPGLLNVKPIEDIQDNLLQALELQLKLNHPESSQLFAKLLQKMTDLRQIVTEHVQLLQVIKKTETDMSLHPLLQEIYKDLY
Kind of test: TR-FRET Assay to Measure Co-R Peptide Recruitment to PPARγ. Format: biochemical. Particulars: Co-R peptide (SMRT-ID2) recruitment; top final concentration 20 μM; read-out: TR-FRET i-Ag; AC50. The procedure, abridged: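 Corepressor recruitment is measured by adding terbium-labeled anti-His antibody and FITC SMRT-ID2 peptide, at 5 and 200 nM final, after a 20-minute room-temperature protein–compound incubation. After one further hour, signal is converted to percent response between DMSO and 500 nM T0070907 wells.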

In another test the test system is UM-UC-9 engineered cells. The test is described as follows: Cell proliferation / short-term viability assay, CellTiter-Glo 144 h. The class given is cell-based, human. Particulars: read-out: CTGlo 144 h UMUC9.5, G150. The procedure, abridged: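 Viability read by CellTiter-Glo 2.0 luminescence at day 7 versus DMSO-vehicle wells and a T0 plate measured on day 0. Cells: UM-UC-9 engineered assay-ready stocks, 500 cells/well in high-glucose DMEM with 10% FBS, 37° C, 5% CO2.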

pIC50: −log10 of the molar value. Where two headings read alike, the source gives them in different places.

Turning to “(1R,3s,5S)—N-((1r,4R)-4-ethoxy-4-(trifluoromethyl)cyclohexyl)-8-(5-(5-fluoro-2-methoxypyridin-4-yl)-1H-pyrazole-3-carbonyl)-8-azabicyclo[3.2.1]octane-3-carboxamide and (1R,3s,5S)—N-((1s,4S)-4-ethoxy-4-(trifluoromethyl)cyclohexyl)-8-(5-(5-fluoro-2-methoxypyridin-4-yl)-1H-pyrazole-3-carbonyl)-8-azabicyclo[3.2.1]octane-3-carboxamide [Example 303]”, on His6-TEV-PPARγ-(234-505), the AC50 was found to be 7.3 nM. Also, the pIC50 in the test with UM-UC-9 engineered cells was 7.38.
Take `CCO[C@]1(C(F)(F)F)CC[C@@H](NC(=O)[C@H]2CCN(C(=O)c3cc(-c4cc(OC)ncc4F)[nH]n3)C3(CC3)C2)CC1` (single isomer, unassigned) [Example 312-B]: the AC50 on His6-TEV-PPARγ-(234-505) came out at 2.5 nM. Besides, the pIC50 in the test with UM-UC-9 engineered cells (Homo sapiens, UM-UC-9, 144 h) was 8.74.
In the case of `COc1cc(-c2cc(C(=O)N3CCC(C(=O)NCC4CCn5cncc5C4)CC34CC4)n[nH]2)c(F)cn1` (single isomer, unassigned) [Example 342-A], the AC50 at His6-TEV-PPARγ-(234-505) turned out to be 50.8 nM. The pIC50 with UM-UC-9 engineered cells was 5.92.
As to `COc1cc(-c2cc(C(=O)N3CCC(C(=O)NCc4ccc5c(c4)CC(=O)N5)CC3)n[nH]2)c(Cl)cn1` [Example 167, 1-(5-(5-chloro-2-methoxypyridin-4-yl)-1H-pyrazole-3-carbonyl)-N-((2-oxoindolin-5-yl)methyl)piperidine-4-carboxamide], the AC50 on His6-TEV-PPARγ-(234-505) is 112 nM. The pIC50 in the test with UM-UC-9 engineered cells (Homo sapiens, UM-UC-9, 144 h) is 5.39.
With `COc1cc(-c2cc(C(=O)N3[C@@H]4CC[C@H]3C[C@H](C(=O)NC3CCC5(CC3)OCC(F)C5F)C4)n[nH]2)c(F)cn1` (stereo partly drawn) [Example 319, (1R,3s,5S)—N-(3,41-difluoro-1-oxaspiro[4.5]decan-8-yl)-8-(5-(5-fluoro-2-methoxypyridin-4-yl)-1H-pyrazole-3-carbonyl)-8-azabicyclo[3.2.1]octane-3-carboxamide], the AC50 at His6-TEV-PPARγ-(234-505) stood at 124 nM. Besides, the pIC50 in the test on UM-UC-9 engineered cells (Homo sapiens, UM-UC-9, 144 h) was 6.64.
For the molecule `COc1cc(-c2cc(C(=O)N3CCC(C(=O)NC4CCC(OCC(C)OC)(C(F)(F)F)CC4)CC34CC4)n[nH]2)c(F)cn1` (single isomer, unassigned) [Example 340-B], the AC50 at His6-TEV-PPARγ-(234-505) is 19 nM. The pIC50 in the test with UM-UC-9 engineered cells is 7.97.
The like results for `COc1cc(-c2cc(C(=O)N3CCC(C(=O)NCC4CCn5c(C)nnc5C4)CC34CC4)[nH]n2)c(F)cn1` (mixture of isomers) [Example 346, (S)-4-(3-(5-fluoro-2-methoxypyridin-4-yl)-1H-pyrazole-5-carbonyl)-NVR)-3-methyl-5,6,7,8-tetrahydro-[1,2,4]triazolo[4,3-a]pyridin-7-yl)methyl)-4-azaspiro[2.5]octane-7-carboxamide and (8)-4-(3-(5-fluoro-2-methoxypyridin-4-yl)-1H-pyrazole-5-carbonyl)-N—(((S)-3-methyl-5,6,7,8-tetrahydro-[1,2,4]triazolo[4,3-a]pyridin-7-yl)methyl)-4-azaspiro[2.5]octane-7-carboxamide] were, in that order, 371 nM and < 5.00.
The like results for `COc1cc(-c2cc(C(=O)N3CCC(C(=O)NC(C)c4cn5c(n4)COCC5)CC34CC4)n[nH]2)c(F)cn1` (mixture of isomers) [Example 415, (S)—N—((S)-1-(5,6-dihydro-8-imidazo[2,1-c][1,4]oxazin-2-yl)ethyl)-4-(5-(5-fluoro-2-methoxypyridin-4-yl)-1H-pyrazole-3-carbonyl)-4-azaspiro[2.5]octane-7-carboxamide and (S)—N—((R)-1-(5,6-dihydro-8H-imidazo[2,1-c][1,4]oxazin-2-yl)ethyl)-4-(5-(5-fluoro-2-methoxypyridin-4-yl)-1H-pyrazole-3-carbonyl)-4-azaspiro[2.5]octane-7-carboxamide] were, in that order, 163 nM and 6.28.
For “(S)-1-(5-(5-fluoro-2-methoxypyridin-4-yl)-1H-pyrazole-3-carbonyl)-N-((1r,4S)-4-hydroxy-4-(trifluoromethyl)cyclohexyl)-2,2-dimethylpiperidine-4-carboxamide and (R)-1-(5-(5-fluoro-2-methoxypyridin-4-yl)-1H-pyrazole-3-carbonyl)-N-((1r,4R)-4-hydroxy-4-(trifluoromethyl)cyclohexyl)-2,2-dimethylpiperidine-4-carboxamide [Example 407]”, in that order: 30.3 nM and 7.64.
`Cc1cc(-c2cc(C(=O)N3CC[C@@H](C(=O)N[C@H]4CC[C@@](O)(C(F)(F)F)CC4)CC34CC4)n[nH]2)c(F)cn1` (single isomer, unassigned) [Example 287-B]: the AC50 on His6-TEV-PPARγ-(234-505) was 118 nM. Moreover, the pIC50 in the test with UM-UC-9 engineered cells (Homo sapiens, UM-UC-9, 144 h) was 6.73.
Take `COc1cc(-c2cc(C(=O)N3CCC(C(=O)NCC4CCc5[nH]ncc5C4)CC34CC4)n[nH]2)c(F)cn1` (single isomer, unassigned) [Example 341-B]: on His6-TEV-PPARγ-(234-505), the AC50 was determined as 8.1 nM. The pIC50 in the test with UM-UC-9 engineered cells was 7.91.
With `COc1cc(-c2cc(C(=O)N3CCC(C(=O)NC4CS(=O)(=O)N(C)c5ccccc54)CC3)n[nH]2)c(Cl)cn1` (racemic) [Example 231, 1-(5-(5-chloro-2-methoxypyridin-4-yl)-1H-pyrazole-3-carbonyl)-N-(1-methyl-2,2-dioxido-3,4-dihydro-1H-benzo[c][1,2]thiazin-4-yl)piperidine-4-carboxamide], on His6-TEV-PPARγ-(234-505), the AC50 was determined as 999 nM. In the test on UM-UC-9 engineered cells (Homo sapiens, UM-UC-9, 144 h), the pIC50 was 5.26.
On to `COc1cc(-c2cc(C(=O)N3CC[C@H](C(=O)NC4CCN(c5ccc(C#N)nc5)C4)CC34CC4)n[nH]2)c(F)cn1` (stereo partly drawn) [Example 488, (7S)—N-(1-(6-cyanopyridin-3-yl)pyrrolidin-3-yl)-4-(5-(5-fluoro-2-methoxypyridin-4-yl)-1H-pyrazole-3-carbonyl)-4-azaspiro[2.5]octane-7-carboxamide], for which, on His6-TEV-PPARγ-(234-505), the AC50 is 0.9 nM. In the test with UM-UC-9 engineered cells (Homo sapiens, UM-UC-9, 144 h), the pIC50 was 8.18.
The like results for `COc1cc(-c2cc(C(=O)N3CC[C@H](C(=O)NC4CN(CC5(F)CC5)C4)CC34CC4)n[nH]2)c(F)cn1` [Example 406, (S)-4-(5-(5-fluoro-2-methoxypyridin-4-yl)-1H-pyrazole-3-carbonyl)-N-(1-((1-fluorocyclopropyl)methyl)azetidin-3-yl)-4-azaspiro[2.5]octane-7-carboxamide] were, in that order, 34.1 nM and 7.13.
The like results for `COc1cc(-c2cc(C(=O)N3CC[C@H](C(=O)NCc4nnccc4C)CC34CC4)n[nH]2)c(F)cn1` [Example 386, (S)-4-(5-(5-fluoro-2-methoxypyridin-4-yl)-1H-pyrazole-3-carbonyl)-N-((4-methylpyridazin-3-yl)methyl)-4-azaspiro[2.5]octane-7-carboxamide] were, in that order, 181 nM and 6.64.
In the case of `COc1cc(-c2cc(C(=O)N3CCC(C(=O)NCc4ccc(C)o4)CC3)n[nH]2)c(Cl)cn1` [Example 189, 1-(5-(5-chloro-2-methoxypyridin-4-yl)-1H-pyrazole-3-carbonyl)-N-((5-methylfuran-2-yl)methyl)piperidine-4-carboxamide], the AC50 at His6-TEV-PPARγ-(234-505) stood at 119 nM. Also, in the test on UM-UC-9 engineered cells (Homo sapiens, UM-UC-9, 144 h), the pIC50 is 6.28.
As for `COc1cc(-c2cc(C(=O)N3CC[C@H](C(=O)NC4CCN(CCF)C(C)(C)C4)CC34CC4)n[nH]2)c(F)cn1` (single isomer, unassigned) [Example 425-A], the AC50 at His6-TEV-PPARγ-(234-505) amounted to 2510 nM. Further, the pIC50 in the test on UM-UC-9 engineered cells was < 5.00.
